Key:
[1] = test system: 3D10 MAb (raised against PvDBP region II); assay: Indirect ELISA, titration of 3D10 against coated peptides; type: binding, mouse; conditions: for 3D10 recognition of peptide by ELISA: peptide coated at 5 µg/ml, titration of 3D10, OD relative to isotype control IgG1
Description: (§1) Immunoglobulin G (IgG) reactivity was measured using the enzyme-linked immunosorbent assay (ELISA). Briefly, 96-well Maxisorb plates (catalogue no. 439454; Thermo Fisher Scientific) were coated with synthetic peptides and recombinant full-length VAR2CSA diluted in 1 x PBS and incubated overnight at 4°C. Coated plates were blocked with 4% bovine serum albumin (BSA, catalogue no. A7906; Sigma-Aldrich) for 1 h at 37°C, then washed once with 1 x PBST (0.1% Tween 20). Plates were incubated with primary antibody for 1 h at room temperature (RT) and washed four times with 1 x PBST. The washed plates were incubated at RT for 1 h with 100 µl of HRP-conjugated secondary antibody (goat anti-human HRP, catalogue no. ab98624, Abcam; goat anti-mouse HRP, catalogue no. 170-6516, Bio-Rad, Mississauga, Canada; goat anti-rat HRP catalogue no. 62-9520). After four washes, 100 µl of 3,3′,5,5′-Tetramethylbenzidine (TMB, catalogue no. T0440; Sigma-Aldrich) were added and the reaction was stopped after 30 mins with an equal volume of H2SO4 (0.5 N). Human sera were screened once, in duplicate. The optical density (OD) values were converted to arbitrary units relative to the positive control sera included on each plate using the formula: AU = ODtest -ODbackground/ODpositive control pool – ODbackground)*100. The positive control pool refers to the OD of a pool of Colombian or Ugandan samples that were seroreactive against the peptides or VAR2CSA, respectively. The background is the OD with secondary antibody alone. The cut-off for seropositivity was based on the mean AU of sera from 12 individual Colombians not exposed to malaria plus 2 standard deviations; data to generate the cut-off are from two independent experiments. Only sera that were above the cut-off for VAR2CSA seropositivity were screened against CRP1 and SD1CLIPS.

[2] = test system: P. falciparum CS2 infected erythrocytes (VAR2CSA-expressing) binding to CSA; assay: Inhibition of binding assay (IBA), static binding of IEs to CSA; type: cell-based; conditions: CS2 IEs preincubated with soluble CSA 250 µg/ml, positive control; relative to AE-BSA control
Description: CRP1 was conjugated to BSA (as carrier protein) at the N-terminus through an azide-alkyne cycloaddition and outsourced commercially to ProSci (California, USA) for rat immunizations. As controls, an unrelated peptide conjugate (P5-BSA), the PAMVAC vaccine candidate (ID1-ID2a region from VAR2CSA) and the carrier protein conjugated to the linker (azido-ethanol (AE-BSA)) were included. Briefly, two female Sprague Dawley rats (~11 weeks old) were immunized intraperitoneally on day 0 with 75 µg of each antigen formulated in PBS and Complete Freund’s Adjuvant (CFA) followed by 3 booster immunizations with 50 µg of antigen in Incomplete Freund’s Adjuvant at 2-week intervals. Sera were collected 14 days after the final boost.
P. falciparum CS2 parasites were cultured in vitro as described ([Trager and Jensen, 1976]). Parasites were selected for adhering to CSA every 3-4 weeks to enrich for parasites expressing VAR2CSA. […]
The ability of anti-CRP1 IgG to block parasite binding to CSA in vitro was assessed by a static binding assay ([Gnidehou et al., 2014]). […] After washing, spots were fixed with glutaraldehyde and stained with Giemsa before imaging using a EVOS FL Auto microscope (Invitrogen) and the number of parasites bound per spot was analyzed using ImageJ. Percent inhibition of binding was calculated relative to the counts from the AE-BSA control.

[3] = Isothermal titration calorimetry (ITC) of peptides with CSA; type: binding, Bovine; conditions: 25°C; for Binding to CSA by ITC: PBS with 0.5% acetonitrile pH 7.4, 50 µM peptide in cell, 1 mM CSA in syringe, 25 injections of 1.5 µl
Description: Bovine tracheal CSA was purchased from Sigma-Aldrich (Cat no C9819). The energetics of the binding of peptides to CSA was performed at 25°C, on a MicroCal PEAQ-ITC calorimeter (Malvern Panalytical, Malvern, USA). For all experiments, samples were prepared in PBS containing 0.5% acetonitrile, pH 7.4. The reference cell was loaded with autoclaved milli-Q ultra-pure water; the sample cell was loaded with peptide solution (50 µM) and the syringe was filled with 1 mM CSA solution (based on a molecular weight of 50 kDa). In each titration, 25 injections of 1.5 μl of the CSA solution were made into the sample cell. A spacing of 150 s between each injection was applied to enable the system to reach equilibrium. The ITC data were analyzed with MicroCal-PEAQ-ITC Analysis Software v1.41. Binding parameters such as the ΔH (enthalpy change) and the ΔS (entropy change) were determined by fitting the experimental binding isotherms with the ‘one set of sites’ fitting model and GraphPad Prism software (version 9) was used to plot the results.

[4] = test system: rat-CRP1 antibodies (sera of CRP1-BSA immunized rats); assay: Indirect ELISA, reactivity of rat anti-CRP1 sera against peptides; type: binding; conditions: peptide coated 5 µg/ml, rat sera 1/100 dilution
Description: as §1, with “The positive control pool refers to the OD of a pool of Colombian or Ugandan samples that were seroreactive against the peptides or VAR2CSA, respectively. The background is the OD with secondary antibody alone. The cut-off for seropositivity was based on the mean AU of sera from 12 individual Colombians not exposed to malaria plus 2 standard deviations; data to generate the cut-off are from two independent experiments. Only sera that were above the cut-off for VAR2CSA seropositivity were screened against CRP1 and SD1CLIPS.” left out

[5] = test system: 3D10 MAb binding to SD1CLIPS; assay: Competition ELISA of 3D10 with SD1CLIPS as capture antigen; design: species or system mouse; conditions: 3D10 (1.72 µg/ml) pre-incubated 1 h RT with 10 µg/ml competing peptide; SD1CLIPS coated 1 µg/ml; compared with negative control peptide P10; 3 independent experiments
[6] = test system: 3D10 MAb binding to recombinant VAR2CSA (FCR3); assay: Competition ELISA of 3D10 with VAR2CSA as capture antigen; design: species or system mouse; conditions: 3D10 (8.6 µg/ml) pre-incubated 1 h RT with 10 µg/ml competing peptide; VAR2CSA coated 1 µg/ml; 3 independent experiments
Description: as §1, with “The positive control pool refers to the OD of a pool of Colombian or Ugandan samples that were seroreactive against the peptides or VAR2CSA, respectively. The background is the OD with secondary antibody alone. The cut-off for seropositivity was based on the mean AU of sera from 12 individual Colombians not exposed to malaria plus 2 standard deviations; data to generate the cut-off are from two independent experiments. Only sera that were above the cut-off for VAR2CSA seropositivity were screened against CRP1 and SD1CLIPS.” left out

Row | Substance | 3D10 recognition of peptide by ELISA [1] | Binding to CSA by ITC [3] | Recognition of peptide by rat-CRP1 antibodies (ELISA) [4] | further results
1 | KAYISEKKQEWDKQKTKYENKYVGKSASDLLKEN [CRP1-K1510A] | partially reduced binding | – | – | –
2 | chondroitin sulfate A [Soluble CSA] | – | – | – | Percent inhibition of IE binding to CSA [2]: over 90%
3 | KKYISEKKQEWDAQKTAYENAYVGKSASDLLKEN [CRP1-AAA] | completely abolished antibody recognition | – | – | –
4 | KQIWLKSKSKNKTEEKGKDYYQKEKYKANLEVSD [Scrambled CRP1 peptide, scrambled version of CRP1, reference compound] | poorly recognized | also bound to CSA | did not recognize | –
5 | KKYISEKKQEWDKQKTKYENKYVGKSASDLLKEN [CRP1] | recognizes | heat release after each CSA injection, consistent with CSA binding to CRP1 | recognized | Competition for 3D10 binding to SD1CLIPS [5]: significant loss in SD1CLIPS recognition; 3D10 recognition of peptide by ELISA compared with SD1CLIPS ([1]; both peptides coated at 1 µg/ml, titration of 3D10): substantially weaker; Binding to CSA by ITC in the presence of 100 mM NaCl ([3]; 50 µM peptide, 1 mM CSA, in the presence of 100 mM NaCl): abrogated; Competition for 3D10 binding to VAR2CSA [6]: same binding inhibition toward VAR2CSA as compared to SD1CLIPS
